How the values were obtained:
[1] = tested on: HRAS (DNA, G4) TCGGGTTGCGGGCGCAGGGCACGGGCG; assay: UV-vis absorption titration; conditions: K+ 100 mM; 10 mM Tris-HCl pH 7.4; 5 µM c-exNDI; apparent; overall constant of 2:1 model
[2] = tested on: hTel22 (DNA, G4) AGGGTTAGGGTTAGGGTTAGGG; assay: fluorescence titration; conditions: K+ 100 mM; 10 mM Tris-HCl pH 7.4; 5 µM c-exNDI; apparent
[3] = tested on: dsDNA (DNA, duplex) CAATCGGATCGAATTCGATCCGATTG; assay: UV-vis absorption titration; conditions: K+ 100 mM; 10 mM Tris-HCl pH 7.4; 5 µM c-exNDI; apparent
[4] = tested on: hTel22 (DNA, G4) AGGGTTAGGGTTAGGGTTAGGG; assay: circular dichroism (induced CD); conditions: K+ 100 mM; 4 µM G4, 16 µM c-exNDI
[5] = tested on: TBA (DNA, G4) GGTTGGTGTGGTTGG; assay: UV-vis absorption titration; conditions: K+ 100 mM; 10 mM Tris-HCl pH 7.4; 5 µM c-exNDI; apparent
[6] = tested on: hTel22 (DNA, G4) AGGGTTAGGGTTAGGGTTAGGG; assay: UV-vis absorption titration; conditions: 10 mM Tris-HCl pH 7.4, 5 µM c-exNDI, apparent
[7] = tested on: c-kit2 (DNA, G4) CCCGGGCGGGCGCGAGGGAGGGGAGG; assay: fluorescence light-up; conditions: K+ 100 mM; 10 mM Tris-HCl pH 7.4; 5 µM each; quantum yield 0.13 against 0.08 free
[8] = tested on: c-myc (DNA, G4) TGAGGGTGGGTAGGGTGGGTAA; assay: UV-vis absorption titration; conditions: K+ 100 mM; 10 mM Tris-HCl pH 7.4; 5 µM c-exNDI; apparent; main text prints error ± 0.3
[9] = tested on: c-kit1 (DNA, G4) AGGGAGGGCGCTGGGAGGAGGG; assay: UV-vis absorption titration; conditions: K+ 100 mM; 10 mM Tris-HCl pH 7.4; 5 µM c-exNDI; apparent
[10] = tested on: ssDNA (DNA, single strand) GGATGTGAGTGTGAGTGTGAGG; assay: UV-vis absorption titration; conditions: K+ 100 mM; 10 mM Tris-HCl pH 7.4; 5 µM c-exNDI; apparent

## CN(C)CCCn1c(=O)c2ccc3c(=O)n(CCCN(C)C)c(=O)c4c5[nH]c6ccccc6[nH]c5c(c1=O)c2c34
[1]
  K1:2: 3.0±0.3x10^10 M^-2
[2]
  K1:1: 5.34±0.03x10^6 M^-1
[3]
  K1:1: 7.41±0.03x10^3 M^-1
[4]
  binding: yes
[5]
  K1:1: 1.2±0.5x10^5 M^-1
[6]; K+ 100 mM
  K1:1: 5.37±0.06x10^6 M^-1
[6]; Na+ 100 mM, overall constant of 2:1 model
  K1:2: 3.0±0.3x10^11 M^-2
[7]
  binding: yes
[8]
  K1:1: 3.43±0.03x10^7 M^-1
[9]
  K1:1: 4.82±0.04x10^6 M^-1
[10]
  K1:1: 2.85±0.01x10^5 M^-1

Source: PMC5471928 (2017)
